Experiment: xn = mol fraction of the nth substance listed

CCCCCCCCCCO + CCCCO
viscosity [mPa·s]
Conditions	293.15 K	298.15 K	308.15 K	318.15 K
101 kPa, x2 = 0.05	–	10.62	7.143	5.139
101 kPa, x2 = 0.1	–	10.2	6.798	4.922
101 kPa, x2 = 0.15	–	9.731	6.473	4.71
101 kPa, x2 = 0.2	–	9.226	6.163	4.501
101 kPa, x2 = 0.25	–	8.701	5.866	4.294
101 kPa, x2 = 0.3	–	8.167	5.576	4.088
101 kPa, x2 = 0.35	–	7.635	5.292	3.883
101 kPa, x2 = 0.4	–	7.113	5.012	3.678
101 kPa, x2 = 0.45	–	6.609	4.734	3.475
101 kPa, x2 = 0.5	–	6.127	4.456	3.272
101 kPa, x2 = 0.55	–	5.671	4.179	3.07
101 kPa, x2 = 0.6	–	5.243	3.903	2.872
101 kPa, x2 = 0.65	–	4.843	3.629	2.676
101 kPa, x2 = 0.7	–	4.47	3.358	2.485
101 kPa, x2 = 0.75	–	4.12	3.093	2.301
101 kPa, x2 = 0.8	–	3.788	2.837	2.124
101 kPa, x2 = 0.85	–	3.468	2.592	1.958
101 kPa, x2 = 0.9	–	3.152	2.364	1.804
101 kPa, x2 = 0.95	–	2.828	2.157	1.665
101.33 kPa, x2 = 0.1748	11.91	–	–	–
101.33 kPa, x2 = 0.1793	–	9.791	–	–
101.33 kPa, x2 = 0.2939	10.27	–	–	–
101.33 kPa, x2 = 0.4002	–	7.559	–	–
101.33 kPa, x2 = 0.491	7.756	–	–	–
101.33 kPa, x2 = 0.5389	–	6.102	–	–
101.33 kPa, x2 = 0.6325	6.156	–	–	–
101.33 kPa, x2 = 0.7242	–	4.498	–	–
101.33 kPa, x2 = 0.7787	4.69	–	–	–
101.33 kPa, x2 = 0.836	–	3.659	–	–
101.33 kPa, x2 = 0.8851	3.806	–	–	–
101.33 kPa, x2 = 0.9219	–	3.077	–	–

COCCOCCO + O=C1CCCN1
298.15 K, 101 kPa
Conditions	viscosity [mPa·s]
x1 = 0.0019	14.15
x1 = 0.0054	14.04
x1 = 0.0129	13.78
x1 = 0.0209	13.49
x1 = 0.0311	13.16
x1 = 0.0482	12.66
x1 = 0.0682	12.11
x1 = 0.0864	11.61
x1 = 0.1139	10.99
x1 = 0.1615	9.962
x1 = 0.2074	9.178
x1 = 0.2531	8.449
x1 = 0.2817	8.045
x1 = 0.3289	7.543
x1 = 0.3814	7.009
x1 = 0.4684	6.246
x1 = 0.489	6.106
x1 = 0.5396	5.741
x1 = 0.6097	5.295
x1 = 0.6687	4.976
x1 = 0.7169	4.749
x1 = 0.7652	4.502
x1 = 0.8144	4.294
x1 = 0.8697	4.069
x1 = 0.8962	3.972
x1 = 0.9239	3.85
x1 = 0.9469	3.745
x1 = 0.9719	3.658
x2 = 0.0058	3.533
x2 = 0.0141	3.561

CCCCC(CC)COC(=O)c1ccc(C(=O)OCC(CC)CCCC)c(C(=O)OCC(CC)CCCC)c1 (configuration not stated) + O
101 kPa
Conditions	viscosity [mPa·s]
303.14 K, x2 = 0.019	151.1
303.15 K, x2 = 0.0111	152.7
303.15 K, x2 = 0.0169	151.2
303.16 K, x2 = 0.00366	153.9
303.16 K, x2 = 0.00372	153.9
303.16 K, x2 = 0.00843	153.1
303.16 K, x2 = 0.0124	152.2
303.16 K, x2 = 0.0155	151.6
303.16 K, x2 = 0.0164	151.4

CC(C)[C@@H]1CC[C@@H](C)C[C@H]1O + CCC(O)CO
Conditions	viscosity [mPa·s]
298.15 K, 101.33 kPa, x1 = 0.5	88.2

Cl[Si](Cl)(Cl)Cl + CCOC(C)OCC
viscosity [mPa·s], 101 kPa
Conditions	303.1 K	313.1 K
x2 = 0.13	0.45	0.41
x2 = 0.2026	0.45	0.413
x2 = 0.3244	0.459	0.421
x2 = 0.4102	0.475	0.427
x2 = 0.4927	0.492	0.442
x2 = 0.5909	0.515	0.461
x2 = 0.6377	0.534	0.476
x2 = 0.6703	0.538	0.484
x2 = 0.71	0.552	0.49
x2 = 0.7457	0.541	0.481
x2 = 0.8082	0.52	0.467
x2 = 0.8385	0.492	0.447
x2 = 0.8813	0.456	0.41
x2 = 0.9655	0.416	0.375

Cc1ccccc1C + Cc1ccc(C)cc1
101.3 kPa
Conditions	viscosity [mPa·s]
298.15 K, x1 = 0.0748	0.6114
298.15 K, x1 = 0.1866	0.6242
298.15 K, x1 = 0.3032	0.641
298.15 K, x1 = 0.4147	0.6549
298.15 K, x1 = 0.5702	0.6779
298.15 K, x1 = 0.6823	0.6995
298.15 K, x1 = 0.8109	0.7176
298.15 K, x1 = 0.9402	0.7417
303.15 K, x1 = 0.0902	0.5764
303.15 K, x1 = 0.2065	0.5904
303.15 K, x1 = 0.3178	0.604
303.15 K, x1 = 0.4339	0.6204
303.15 K, x1 = 0.4577	0.6237
303.15 K, x1 = 0.5832	0.642
303.15 K, x1 = 0.6243	0.6474
303.15 K, x1 = 0.7864	0.6729
303.15 K, x1 = 0.8933	0.6889

NC(N)=O + CN(C)C=O
101 kPa
Conditions	viscosity [mPa·s]
293.15 K, x1 = 0.00259	0.8641
293.15 K, x1 = 0.004089	0.8696
293.15 K, x1 = 0.005542	0.8749
293.15 K, x1 = 0.007625	0.8829
293.15 K, x1 = 0.008542	0.8861
293.15 K, x1 = 0.009703	0.8909
293.15 K, x1 = 0.01132	0.8964
293.15 K, x1 = 0.01367	0.906
298.15 K, x1 = 0.002771	0.8095
298.15 K, x1 = 0.00599	0.8163
298.15 K, x1 = 0.0088	0.8219
298.15 K, x1 = 0.01098	0.8295
298.15 K, x1 = 0.01142	0.8371
298.15 K, x1 = 0.01232	0.8421
298.15 K, x1 = 0.01349	0.8468
298.15 K, x1 = 0.0148	0.8557
303.15 K, x1 = 0.001637	0.7596
303.15 K, x1 = 0.003093	0.7641
303.15 K, x1 = 0.004755	0.7693
303.15 K, x1 = 0.005964	0.7728
303.15 K, x1 = 0.007418	0.7775
303.15 K, x1 = 0.008306	0.7799
303.15 K, x1 = 0.01015	0.7857
303.15 K, x1 = 0.01168	0.7908
308.15 K, x1 = 0.001989	0.7171
308.15 K, x1 = 0.003566	0.7214
308.15 K, x1 = 0.005107	0.7257
308.15 K, x1 = 0.006768	0.73
308.15 K, x1 = 0.008236	0.7345
308.15 K, x1 = 0.009277	0.7372
308.15 K, x1 = 0.01039	0.7403
308.15 K, x1 = 0.01098	0.7421

CCn1cc[n+](C)c1.F[B-](F)(F)F + O
Conditions	viscosity [mPa·s]
293.15 K, 101 kPa, x2 = 0.3047	19.25

From the CheMixHub viscosity set
